{"source": "patent US6114310A", "about": "“Efflux pump inhibitors” (priority 1998, dated 2000)", "tested_on": "Pseudomonas aeruginosa PAM1001", "assay": "microbe, parasite or virus in culture", "assay_type": "cell-based", "procedure": "The activity of efflux pump inhibitors (EPI) in combination with fluoroquinolones, such as levofloxacin, is assessed by the checkerboard assay (Antimicrobial Combinations. In Antibiotics in Laboratory Medicine, Ed. Victor Lorian, M. D., Fourth edition, 1996, pp 333-338) using broth microdilution method performed as recommended by the NCCLS (National Committee for Clinical Laboratory Standards (NCCLS). 1997. Methods for Dilution of Antimicrobial Susceptibility Tests for Bacteria That Grow Aerobically--Fourth Edition; Approved Standard. NCCLS Document M7-A4, Vol 17 No.2). The test organism used is Pseudomonas aeruginosa PAM1001.\nIn this assay, multiple dilutions of two drugs, namely the EPI and levofloxacin, are being tested, alone and in combination, at concentrations equal to, above and below their respective minimal inhibitory concentrations (MICs).\nStock solutions are further diluted, according to the needs of a particular assay, in Mueller Hinton Broth (MHB). Stock solution can be stored at -80° C. Quinolones are solubilized according to the instructions of the manufacturers, at a concentration of 1 mg/ml. They are then further diluted in MHB. Stock solution can be stored at -80° C.\nThe checkerboard assay is performed in microtiter plates. Levofloxacin is diluted in the x axis, each column containing a single concentration of levofloxacin. The EPI is diluted in the y axis, each row containing an equal concentration of EPI. The result of these manipulations is that each well of the microtiter plate contains a unique combination of concentrations of the two agents. Each EPI are tested independently.\nThe assay is performed in MHB with a final bacterial inoculum of 5×10^5 CFU/ml (from an early-log phase culture). Microtiter plates are incubated during 20 h at 35° C. and are read using a microtiterplate reader (Molecular Devices) at 650 nm as well as visual observation using a microtiterplate reading mirror."}
{"substance": "D-Lysyl-β-N-(Ethylthioethyl)alanine 2-Naphthylamide Trifluoroacetate [Example 25]", "values": [{"measurement": "Levofloxacin MIC Against P. aeruginosa PAM1001 in Presence of Efflux Pump Inhibitor (EPI), Minimum Inhibitory Concentration", "setting": "Table 1, EPI Conc. 0 μg/ml", "result": 4, "unit": "µg/mL"}, {"measurement": "Levofloxacin MIC Against P. aeruginosa PAM1001 in Presence of Efflux Pump Inhibitor (EPI), Minimum Inhibitory Concentration", "setting": "Table 1, EPI Conc. 0.625 μg/ml", "result": 4, "unit": "µg/mL"}, {"measurement": "Levofloxacin MIC Against P. aeruginosa PAM1001 in Presence of Efflux Pump Inhibitor (EPI), Minimum Inhibitory Concentration", "setting": "Table 1, EPI Conc. 5 μg/ml", "result": 1, "unit": "µg/mL"}, {"measurement": "Levofloxacin MIC Against P. aeruginosa PAM1001 in Presence of Efflux Pump Inhibitor (EPI), Minimum Inhibitory Concentration", "setting": "Table 1, EPI Conc. 10 μg/ml", "result": 0.06, "unit": "µg/mL"}, {"measurement": "Levofloxacin MIC Against P. aeruginosa PAM1001 in Presence of Efflux Pump Inhibitor (EPI), Minimum Inhibitory Concentration", "setting": "Table 1, EPI Conc. 40 μg/ml", "result": 0.06, "unit": "µg/mL"}, {"measurement": "Levofloxacin MIC Against P. aeruginosa PAM1001 in Presence of Efflux Pump Inhibitor (EPI), Minimum Inhibitory Concentration", "setting": "Table 1, EPI Conc. […]", "result": 4, "unit": "µg/mL"}, {"measurement": "Levofloxacin MIC Against P. aeruginosa PAM1001 in Presence of Efflux Pump Inhibitor (EPI), Minimum Inhibitory Concentration", "setting": "Table 1, EPI Conc. μg/ml (number not given; column between 10 and 40 μg/ml)", "result": 0.06, "unit": "µg/mL"}, {"measurement": "Levofloxacin MIC Against P. aeruginosa PAM1001 in Presence of Efflux Pump Inhibitor (EPI), Minimum Inhibitory Concentration", "setting": "Table 2, EPI Conc. 0 μg/ml", "result": 4, "unit": "µg/mL"}, {"measurement": "Levofloxacin MIC Against P. aeruginosa PAM1001 in Presence of Efflux Pump Inhibitor (EPI), Minimum Inhibitory Concentration", "setting": "Table 2, EPI Conc. 0.625 μg/ml", "result": 4, "unit": "µg/mL"}, {"measurement": "Levofloxacin MIC Against P. aeruginosa PAM1001 in Presence of Efflux Pump Inhibitor (EPI), Minimum Inhibitory Concentration", "setting": "Table 2, EPI Conc. 5 μg/ml", "result": 1, "unit": "µg/mL"}, {"measurement": "Levofloxacin MIC Against P. aeruginosa PAM1001 in Presence of Efflux Pump Inhibitor (EPI), Minimum Inhibitory Concentration", "setting": "Table 2, EPI Conc. 10 μg/ml", "result": 0.06, "unit": "µg/mL"}, {"measurement": "Levofloxacin MIC Against P. aeruginosa PAM1001 in Presence of Efflux Pump Inhibitor (EPI), Minimum Inhibitory Concentration", "setting": "Table 2, EPI Conc. 40 μg/ml", "result": 0.06, "unit": "µg/mL"}, {"measurement": "Levofloxacin MIC Against P. aeruginosa PAM1001 in Presence of Efflux Pump Inhibitor (EPI), Minimum Inhibitory Concentration", "setting": "Table 2, EPI Conc. μg/ml (number not given; column between 10 and 40 μg/ml)", "result": 0.06, "unit": "µg/mL"}, {"measurement": "Levofloxacin MIC Against P. aeruginosa PAM1001 in Presence of Efflux Pump Inhibitor (EPI), Minimum Inhibitory Concentration", "setting": "Table 3, EPI Conc. 0 μg/ml", "result": 4, "unit": "µg/mL"}, {"measurement": "Levofloxacin MIC Against P. aeruginosa PAM1001 in Presence of Efflux Pump Inhibitor (EPI), Minimum Inhibitory Concentration", "setting": "Table 3, EPI Conc. 0.625 μg/ml", "result": 4, "unit": "µg/mL"}, {"measurement": "Levofloxacin MIC Against P. aeruginosa PAM1001 in Presence of Efflux Pump Inhibitor (EPI), Minimum Inhibitory Concentration", "setting": "Table 3, EPI Conc. 5 μg/ml", "result": 2, "unit": "µg/mL"}, {"measurement": "Levofloxacin MIC Against P. aeruginosa PAM1001 in Presence of Efflux Pump Inhibitor (EPI), Minimum Inhibitory Concentration", "setting": "Table 3, EPI Conc. 10 μg/ml", "result": 1, "unit": "µg/mL"}, {"measurement": "Levofloxacin MIC Against P. aeruginosa PAM1001 in Presence of Efflux Pump Inhibitor (EPI), Minimum Inhibitory Concentration", "setting": "Table 3, EPI Conc. 40 μg/ml", "result": 0.25, "unit": "µg/mL"}, {"measurement": "Levofloxacin MIC Against P. aeruginosa PAM1001 in Presence of Efflux Pump Inhibitor (EPI), Minimum Inhibitory Concentration", "setting": "Table 3, EPI Conc. […]", "result": 4, "unit": "µg/mL"}, {"measurement": "Levofloxacin MIC Against P. aeruginosa PAM1001 in Presence of Efflux Pump Inhibitor (EPI), Minimum Inhibitory Concentration", "setting": "Table 3, EPI Conc. μg/ml (number not given; column between 10 and 40 μg/ml)", "result": 0.50, "unit": "µg/mL"}, {"measurement": "Levofloxacin MIC Against P. aeruginosa PAM1001 in Presence of Efflux Pump Inhibitor (EPI), Minimum Inhibitory Concentration", "setting": "Table 4, EPI Conc. 0 μg/ml", "result": 4, "unit": "µg/mL"}, {"measurement": "Levofloxacin MIC Against P. aeruginosa PAM1001 in Presence of Efflux Pump Inhibitor (EPI), Minimum Inhibitory Concentration", "setting": "Table 4, EPI Conc. 0.625 μg/ml", "result": 4, "unit": "µg/mL"}, {"measurement": "Levofloxacin MIC Against P. aeruginosa PAM1001 in Presence of Efflux Pump Inhibitor (EPI), Minimum Inhibitory Concentration", "setting": "Table 4, EPI Conc. 5 μg/ml", "result": 0.125, "unit": "µg/mL"}, {"measurement": "Levofloxacin MIC Against P. aeruginosa PAM1001 in Presence of Efflux Pump Inhibitor (EPI), Minimum Inhibitory Concentration", "setting": "Table 4, EPI Conc. 10 μg/ml", "result": 0.06, "unit": "µg/mL"}, {"measurement": "Levofloxacin MIC Against P. aeruginosa PAM1001 in Presence of Efflux Pump Inhibitor (EPI), Minimum Inhibitory Concentration", "setting": "Table 4, EPI Conc. 40 μg/ml", "result": 0.125, "unit": "µg/mL"}, {"measurement": "Levofloxacin MIC Against P. aeruginosa PAM1001 in Presence of Efflux Pump Inhibitor (EPI), Minimum Inhibitory Concentration", "setting": "Table 4, EPI Conc. μg/ml (number not given; column between 10 and 40 μg/ml)", "result": 0.125, "unit": "µg/mL"}]}
